In ChEMBL document CHEMBL3044672, “N9- and N7-(Chloromethyl Phenymethyl)Chloropurine Derivatives from , '-Dichloroxylenes: Synthesis and Anticancer Activity” (2005):

Key:
Type in all cases: functional
HCT-15 = experiment: Cytotoxicity against Homo sapiens (human) HCT15 cells after 48 hr by sulforhodamine B assay; details: HCT-15, 48 h; for CC50: read-out: LC50 (the source's name)
COLO 205 = experiment: Cytotoxicity against Homo sapiens (human) COLO205 cells after 48 hr by sulforhodamine B assay; details: COLO 205, 48 h; for CC50: read-out: LC50 (the source's name)
SF-539 = experiment: Cytotoxicity against Homo sapiens (human) SF539 cells after 48 hr by sulforhodamine B assay; details: SF-539, 48 h
SNB-75 = experiment: Cytotoxicity against Homo sapiens (human) SNB75 cells after 48 hr by sulforhodamine B assay; details: SNB-75, 48 h; for CC50: read-out: LC50 (the source's name)
SNB-19 = experiment: Cytotoxicity against Homo sapiens (human) SNB19 cells after 48 hr by sulforhodamine B assay; details: SNB-19, 48 h
SF-268 = experiment: Cytotoxicity against Homo sapiens (human) SF268 cells assessed as cell growth at 10^-4 M after 48 hr by […] assay; details: SF-268, 48 h, read-out: Activity
NCI-H460 = experiment: Cytotoxicity against Homo sapiens (human) NCI-H460 cells assessed as cell growth at 10^-4 M after 48 hr by Alamar blue assay; details: NCI-H460, 48 h, read-out: Activity
TK-10 = experiment: Cytotoxicity against Homo sapiens (human) TK10 cells after 48 hr by sulforhodamine B assay; details: TK-10, 48 h; for CC50: read-out: LC50 (the source's name)
OVCAR-4 = experiment: Cytotoxicity against Homo sapiens (human) OVCAR4 cells after 48 hr by sulforhodamine B assay; details: OVCAR-4, 48 h
HCT-116 = experiment: Cytotoxicity against Homo sapiens (human) HCT116 cells after 48 hr by sulforhodamine B assay; details: HCT-116, 48 h; for CC50: read-out: LC50 (the source's name)
KM12 = experiment: Cytotoxicity against Homo sapiens (human) KM12 cells after 48 hr by sulforhodamine B assay; details: KM12, 48 h; for CC50: read-out: LC50 (the source's name)
NCI-H226 = experiment: Cytotoxicity against Homo sapiens (human) NCI-H226 cells after 48 hr by sulforhodamine B assay; details: NCI-H226, 48 h; for CC50: read-out: LC50 (the source's name)
ACHN = experiment: Cytotoxicity against Homo sapiens (human) ACHN cells after 48 hr by sulforhodamine B assay; details: for CC50: read-out: LC50 (the source's name)
786-0 = experiment: Cytotoxicity against Homo sapiens (human) 786-0 cells after 48 hr by sulforhodamine B assay; details: 786-0, 48 h
MDA-MB-435 = experiment: Cytotoxicity against Homo sapiens (human) MDA-MB-435 cells after 48 hr by sulforhodamine B assay; details: MDA-MB-435, 48 h
A549 = experiment: Cytotoxicity against Homo sapiens (human) A549 cells after 48 hr by sulforhodamine B assay; details: A549, 48 h; for CC50: read-out: LC50 (the source's name)
RPMI-8226 = experiment: Cytotoxicity against Homo sapiens (human) RPMI8226 cells after 48 hr by sulforhodamine B assay; details: RPMI-8226, 48 h; for CC50: read-out: LC50 (the source's name)
K562 = experiment: Cytotoxicity against Homo sapiens (human) K562 cells after 48 hr by sulforhodamine B assay; details: K562, 48 h; for CC50: read-out: LC50 (the source's name)
Hs-578T = experiment: Cytotoxicity against Homo sapiens (human) Hs 578T cells after 48 hr by sulforhodamine B assay
MDA-MB-231 = experiment: Cytotoxicity against Homo sapiens (human) MDA-MB-231 cells after 48 hr by sulforhodamine B assay; details: MDA-MB-231, 48 h
SN12C = experiment: Cytotoxicity against Homo sapiens (human) SN12C cells after 48 hr by sulforhodamine B assay
SW-620 = experiment: Cytotoxicity against Homo sapiens (human) SW620 cells after 48 hr by sulforhodamine B assay; details: SW-620, 48 h; for CC50: read-out: LC50 (the source's name)
A498 = experiment: Cytotoxicity against Homo sapiens (human) A498 cells after 48 hr by sulforhodamine B assay; details: A498, 48 h
UACC-62 = experiment: Cytotoxicity against Homo sapiens (human) UACC62 cells after 48 hr by sulforhodamine B assay; details: UACC-62, 48 h
NCI-H522 = experiment: Cytotoxicity against Homo sapiens (human) NCI-H522 cells after 48 hr by sulforhodamine B assay; details: NCI-H522, 48 h; for CC50: read-out: LC50 (the source's name)
HOP-92 = experiment: Cytotoxicity against Homo sapiens (human) HOP92 cells after 48 hr by sulforhodamine B assay; details: HOP-92, 48 h; for CC50: read-out: LC50 (the source's name)
UACC-257 = experiment: Cytotoxicity against Homo sapiens (human) UACC257 cells after 48 hr by sulforhodamine B assay; details: UACC-257, 48 h

Nc1nc(Cl)c2ncn(Cc3ccccc3CCl)c2n1
TGI (HCT-15): 7.41 µM
CC50 (HCT-15): > 100 µM
TGI (COLO 205): > 100 µM
CC50 (COLO 205): > 100 µM
LC50 (concentration killing 50% of cells) (SF-539): 81.3 µM
TGI (SF-539): 38 µM
TGI (SNB-75): 23.5 µM
CC50 (SNB-75): 64.6 µM
LC50 (SNB-19): > 100 µM
TGI (SNB-19): 27.5 µM
growth at 100 µM (SF-268): 67%
growth at 100 µM (NCI-H460): 0%
TGI (TK-10): 36.3 µM
CC50 (TK-10): 75.9 µM
LC50 (concentration killing 50% of cells) (OVCAR-4): 50.1 µM
TGI (OVCAR-4): 6.46 µM
TGI (HCT-116): > 100 µM
CC50 (HCT-116): > 100 µM
TGI (KM12): 38.9 µM
CC50 (KM12): 97.2 µM
TGI (NCI-H226): 10 µM
CC50 (NCI-H226): 53.7 µM
TGI (ACHN): 21.9 µM
CC50 (ACHN): 75.9 µM
LC50 (786-0): > 100 µM
TGI (786-0): 52.5 µM
LC50 (MDA-MB-435): > 100 µM
TGI (MDA-MB-435): 26.9 µM
TGI (A549): 53.7 µM
CC50 (A549): > 100 µM
TGI (RPMI-8226): > 100 µM
CC50 (RPMI-8226): > 100 µM
TGI (K562): > 100 µM
CC50 (K562): > 100 µM
LC50 (Hs-578T): > 100 µM
TGI (Hs-578T): 77.6 µM
LC50 (MDA-MB-231): 63.1 µM
TGI (MDA-MB-231): 9.55 µM
LC50 (50% lethal concentration) (SN12C): 19.5 µM
TGI (SN12C): 5.62 µM
TGI (SW-620): 11.8 µM
CC50 (SW-620): > 100 µM
LC50 (lethal concentration, 50% cell kill) (A498): 95.5 µM
TGI (A498): 44.7 µM
LC50 (concentration causing 50% net cell kill) (UACC-62): 8.51 µM
TGI (UACC-62): 4.37 µM
TGI (NCI-H522): 9.33 µM
CC50 (NCI-H522): > 100 µM
TGI (HOP-92): 30.9 µM
CC50 (HOP-92): > 100 µM
LC50 (concentration killing 50% of cells) (UACC-257): > 100 µM
TGI (UACC-257): 38 µM

Nc1nc(Cl)c2ncn(Cc3ccc(CCl)cc3)c2n1
TGI (HCT-15): 19.9 µM
CC50 (HCT-15): 67.6 µM
TGI (COLO 205): 13.5 µM
CC50 (COLO 205): 42.7 µM
LC50 (concentration killing 50% of cells) (SF-539): 46.8 µM
TGI (SF-539): 10 µM
TGI (SNB-75): 91.2 µM
CC50 (SNB-75): > 100 µM
LC50 (SNB-19): 46.8 µM
TGI (SNB-19): 19.9 µM
growth at 100 µM (SF-268): 90%
growth at 100 µM (NCI-H460): 0%
TGI (TK-10): 40.7 µM
CC50 (TK-10): 97.7 µM
LC50 (concentration killing 50% of cells) (OVCAR-4): 57.5 µM
TGI (OVCAR-4): 30.2 µM
TGI (HCT-116): 15 µM
CC50 (HCT-116): 56.2 µM
TGI (KM12): 22.9 µM
CC50 (KM12): 57.5 µM
TGI (NCI-H226): 37.1 µM
CC50 (NCI-H226): > 100 µM
TGI (ACHN): 25.1 µM
CC50 (ACHN): 64.6 µM
LC50 (786-0): > 100 µM
TGI (786-0): 93.3 µM
LC50 (MDA-MB-435): > 100 µM
TGI (MDA-MB-435): 42.7 µM
TGI (A549): 75.9 µM
CC50 (A549): > 100 µM
TGI (RPMI-8226): > 100 µM
CC50 (RPMI-8226): > 100 µM
TGI (K562): > 100 µM
CC50 (K562): > 100 µM
LC50 (Hs-578T): > 100 µM
TGI (Hs-578T): > 100 µM
LC50 (MDA-MB-231): 91.2 µM
TGI (MDA-MB-231): 34.7 µM
LC50 (50% lethal concentration) (SN12C): 60.3 µM
TGI (SN12C): 26.9 µM
TGI (SW-620): 13.8 µM
CC50 (SW-620): 87.1 µM
LC50 (lethal concentration, 50% cell kill) (A498): > 100 µM
TGI (A498): 85.1 µM
LC50 (concentration causing 50% net cell kill) (UACC-62): 53.7 µM
TGI (UACC-62): 8.13 µM
GI50 (NCI-H522): 10.9 µM
TGI (NCI-H522): 25.7 µM
CC50 (NCI-H522): 63.1 µM
TGI (HOP-92): > 100 µM
CC50 (HOP-92): > 100 µM
LC50 (concentration killing 50% of cells) (UACC-257): > 100 µM
TGI (UACC-257): 47.9 µM

ClCc1cccc(Cn2cnc3nc(Cl)nc(Cl)c32)c1
GI50 (HCT-15): 0.95 µM
TGI (HCT-15): 2.13 µM
CC50 (HCT-15): 4.57 µM
GI50 (COLO 205): 0.41 µM
TGI (COLO 205): 1.65 µM
GI50 (SF-539): 0.16 µM
LC50 (concentration killing 50% of cells) (SF-539): 1.62 µM
TGI (SF-539): 0.46 µM
GI50 (SNB-75): 1.09 µM
TGI (SNB-75): 2.29 µM
CC50 (SNB-75): 4.78 µM
GI50 (SNB-19): 1.38 µM
LC50 (SNB-19): 5.12 µM
TGI (SNB-19): 2.69 µM
growth at 100 µM (SF-268): 0%
growth at 100 µM (NCI-H460): 0%
GI50 (TK-10): 16.6 µM
TGI (TK-10): 30.2 µM
CC50 (TK-10): 55 µM
GI50 (OVCAR-4): 1.58 µM
LC50 (concentration killing 50% of cells) (OVCAR-4): 5.37 µM
TGI (OVCAR-4): 2.95 µM
GI50 (HCT-116): 0.75 µM
TGI (HCT-116): 1.99 µM
CC50 (HCT-116): 4.46 µM
GI50 (KM12): 16.6 µM
TGI (KM12): 35.5 µM
CC50 (KM12): 74.1 µM
GI50 (NCI-H226): 1.28 µM
TGI (NCI-H226): 3.63 µM
CC50 (NCI-H226): 19.9 µM
GI50 (ACHN): 1.12 µM
TGI (ACHN): 2.34 µM
CC50 (ACHN): 4.78 µM
GI50 (786-0): 1.58 µM
LC50 (786-0): 5.37 µM
TGI (786-0): 2.88 µM
GI50 (MDA-MB-435): 1.47 µM
LC50 (MDA-MB-435): 5.24 µM
TGI (MDA-MB-435): 2.81 µM
GI50 (A549): 12 µM
TGI (A549): 25.7 µM
CC50 (A549): 55 µM
GI50 (RPMI-8226): 1.69 µM
TGI (RPMI-8226): 4.16 µM
CC50 (RPMI-8226): > 100 µM
GI50 (K562): 1.41 µM
TGI (K562): 2.69 µM
CC50 (K562): 5.24 µM
GI50 (Hs-578T): 1.41 µM
TGI (Hs-578T): 2.81 µM
GI50 (MDA-MB-231): 0.46 µM
LC50 (MDA-MB-231): 4.16 µM
TGI (MDA-MB-231): 1.73 µM
GI50 (SN12C): 1.44 µM
TGI (SN12C): 2.75 µM
GI50 (SW-620): 0.41 µM
TGI (SW-620): 1.65 µM
CC50 (SW-620): 4.07 µM
GI50 (A498): 1.51 µM
LC50 (lethal concentration, 50% cell kill) (A498): 5.37 µM
TGI (A498): 2.81 µM
GI50 (UACC-62): 1.02 µM
LC50 (concentration causing 50% net cell kill) (UACC-62): 4.67 µM
TGI (UACC-62): 2.18 µM
GI50 (NCI-H522): 1.81 µM
TGI (NCI-H522): 3.54 µM
CC50 (NCI-H522): 6.91 µM
GI50 (HOP-92): 1.47 µM
TGI (HOP-92): 2.75 µM
CC50 (HOP-92): 5.24 µM
GI50 (UACC-257): 3.46 µM
LC50 (concentration killing 50% of cells) (UACC-257): 38.9 µM
TGI (UACC-257): 15.1 µM
